In US10051861B2, “N-arylamidine-substituted trifluoroethyl sulfide derivatives as acaricides and insecticides” (BAYER CROPSCIENCE AG, priority 2011, dated 2018):
Read-outs that look alike come from different tables or passages of the source.

Tested on: greenhouse red spider mite (Tetranychus urticae)
Assay: Tetranychus urticae spray test, OP-resistant (TETRUR), bean leaf disks
Assay type: in vivo
Experimental: After 6 days, the effect in % is determined.

[1] = Tetranychus urticae, foliar, 144 h, application rate 500 g/ha, after 6 days, read-out: efficacy (spider mites killed)
[2] = application rate 500 g/ha, after 6 days

Row | SMILES | pest or weed control at 500 g/ha [1] [%] | also measured
1 | Cc1cc(Cl)c(SCC(F)(F)F)cc1/N=C(\N)C(F)(F)C(F)(F)F [Ia-70] | 100 | 
2 | Cc1cc(F)c(/N=C(/NC2(C)CC2)C(F)(F)F)cc1[S+]([O-])CC(F)(F)F (centres unmarked) [Ib-36] | 100 | 
3 | CN/C(=N/c1cc([S+]([O-])CC(F)(F)F)c(C)cc1F)c1ccc(C(F)(F)F)cc1 (centres unmarked) [Ib-145] | 90 | 
4 | Cc1cc(F)c(/N=C(/c2ccc(Cl)cc2)N2CCC(F)(F)CC2)cc1SCC(F)(F)F [Ia-270] | 90 | 
5 | CCN(CC)/C(=N/c1cc([S+]([O-])CC(F)(F)F)c(C)cc1F)C(F)(F)F (centres unmarked) [Ib-34] | 100 | 
6 | O=C1CS/C(=N\c2cc(SCC(F)(F)F)c(Cl)cc2F)N1CC(F)(F)F [Ia-192] | 90 | 
7 | CN/C(=N\c1cc(SCC(F)(F)F)c(C)cc1F)c1cnc(Cl)c(Cl)c1 [Ia-148] | 100 | 
8 | Cc1ccc(N=C(N)C(F)(F)F)cc1SCC(F)(F)F [Ia-25] |  | efficacy (spider mites killed) [2]: 100%
9 | Cc1cc(C)c([S+]([O-])CC(F)(F)F)cc1/N=C(/c1ccccc1Cl)N1CCOCC1 (centres unmarked) [Ib-157] | 90 | 
10 | CN/C(=N/c1cc(SCC(F)(F)F)c(C)cc1F)c1ccc(C(F)(F)F)nc1 [Ia-159] | 90 | 
11 | C=CCN/C(=N\c1cc(SCC(F)(F)F)c(C)cc1F)c1ccc(Cl)nc1 [Ia-150] | 100 | 
12 | Cc1cc(F)c(/N=C(/c2ccccc2Cl)N2CCOCC2)cc1SCC(F)(F)F [Ia-230] | 100 | 
13 | N#CC/C(N)=N/c1cc(SCC(F)(F)F)c(Cl)cc1Cl [Ia-173] | 90 | 
14 | Cc1ccc(/N=C2\SCC(=O)N2CC(F)(F)F)cc1SCC(F)(F)F [Ia-195] | 100 | 
15 | CCN(C)/C(=N\c1cc(SCC(F)(F)F)c(C)cc1C)c1ccc(Cl)nc1 [Ia-227] | 100 | 
16 | N/C(=N\c1cc(SCC(F)(F)F)c(Cl)cc1Cl)c1cccnc1 [Ia-141] | 100 | 
17 | Cc1cc(F)c(/N=C(\N)C2CC2)cc1[S+]([O-])CC(F)(F)F (centres unmarked) [Ib-53] | 100 | 
18 | Cc1cc(F)c(/N=C(/N2CCCC2)C(F)(F)F)cc1[S+]([O-])CC(F)(F)F (centres unmarked) [Ib-96] | 90 | 
19 | Cc1cc(F)c(/N=C(\c2cccs2)N(C)C)cc1[S+]([O-])CC(F)(F)F (centres unmarked) [Ib-81] | 100 | 
20 | N/C(=N\c1cc(SCC(F)(F)F)c(Cl)cc1Cl)c1cnccn1 [Ia-208] | 100 | 
21 | FC(F)(F)CN/C(=N\c1cc(SCC(F)(F)F)c(Cl)cc1Cl)C1CCC1 [Ia-259] | 90 | 
22 | Cc1cc(F)c(/N=C(/c2ccccc2)N(C)C)cc1SCC(F)(F)F [Ia-193] | 100 | 
23 | Cc1cc(F)c(/N=C(\c2cccc(C(F)(F)F)c2)N(C)C)cc1[S+]([O-])CC(F)(F)F (centres unmarked) [Ib-114] | 100 | 
24 | CCN/C(=N\c1cc(SCC(F)(F)F)c(C)cc1F)c1cccnc1 [Ia-151] | 100 | 
25 | Cc1cc(F)c(/N=C(\N)c2ccccn2)cc1[S+]([O-])CC(F)(F)F (centres unmarked) [Ib-45] | 100 | 
26 | Cc1cc(F)c(/N=C(/c2cccnc2)N2CCC(F)(F)CC2)cc1SCC(F)(F)F [Ia-269] | 90 | 
27 | Cc1cc(F)c(/N=C(/N)c2ccc(Cl)cc2)cc1SCC(F)(F)F [Ia-215] | 90 | 

Row | SMILES | pest or weed control at 500 g/ha [1] [%] | also measured
28 | Cc1cc(F)c(/N=C(\N)C2CCCCC2)cc1SCC(F)(F)F [Ia-169] | 90 | 
29 | Cc1cc(Cl)c([S+]([O-])CC(F)(F)F)cc1/N=C(\N)C1(Cl)CC1 (centres unmarked) [Ib-138] | 100 | 
30 | CN/C(=N\c1cc(SCC(F)(F)F)c(Cl)cc1Cl)c1cccc(Cl)c1 [Ia-177] | 90 | 
31 | CN(C)/C(=N\c1cc([S+]([O-])CC(F)(F)F)c(Cl)cc1Cl)c1ccc(Cl)nc1 (centres unmarked) [Ib-119] | 100 | 
32 | Cc1cc(F)c(/N=C(/N)c2ccc(Cl)cc2)cc1[S+]([O-])CC(F)(F)F (centres unmarked) [Ib-118] | 100 | 
33 | Cc1cc(F)c(N=C(N(Cc2ccccn2)Cc2ccccn2)C(F)(F)F)cc1SCC(F)(F)F [Ia-08] |  | efficacy (spider mites killed) [2]: 100%
34 | O=C1CS/C(=N\c2ccc(Cl)c([S+]([O-])CC(F)(F)F)c2)N1CC(F)(F)F (centres unmarked) [Ib-146] | 90 | 
35 | N/C(=N/c1cc(SCC(F)(F)F)c(Cl)cc1Br)C(F)(F)F [Ia-124] | 100 | 
36 | Cc1cc(F)c(/N=C2/NCCS2)cc1SCC(F)(F)F [Ia-238, 2-Fluoro-4-methyl-N-[1,3-thiazolidin-2-ylidene]-5-[(2,2,2-trifluoroethyl)sulfanyl]aniline] |  | pest or weed control at 500 g/ha (Tetranychus urticae, foliar, 144 h, read-out: efficacy (spider mites killed)): 100%
37 | Cc1cc(F)c(/N=C(/CC(F)(F)F)N(C)C)cc1SCC(F)(F)F [Ia-216] | 90 | 
38 | Cc1cc(F)c(/N=C(\N)C2CC2(F)Cl)cc1SCC(F)(F)F (centres unmarked) [Ia-67] | 100 | 
39 | Cc1cc(F)c(/N=C(\c2cccc(C(F)(F)F)c2)N(C)C)cc1SCC(F)(F)F [Ia-212] | 90 | 
40 | CN/C(=N/c1cc(SCC(F)(F)F)c(C)cc1F)C(F)(F)F [Ia-226] | 100 | 
41 | Cc1cc(F)c(/N=C2\CCCCN2C)cc1SCC(F)(F)F [Ia-90] | 80 | 
42 | COc1cc(C)c(SCC(F)(F)F)cc1/N=C(\N)C1(Cl)CC1 [Ia-255] | 90 | 
43 | Cc1cc(F)c(/N=C(\N)C(C)C)cc1SCC(F)(F)F [Ia-225] | 100 | 
44 | CN/C(=N\c1cc(SCC(F)(F)F)c(C)cc1C)c1ccncc1 [Ia-239] | 100 | 
45 | [O-][S+](CC(F)(F)F)c1cc(/N=C(\NC2CC2)c2ccc(Cl)nc2)c(Cl)cc1Cl (centres unmarked) [Ib-151] | 100 | 
46 | Cc1cc(F)c(/N=c2\sc(C)c(C)n2CC(F)(F)F)cc1[S+]([O-])CC(F)(F)F (centres unmarked) [Ib-158] | 90 | 
47 | Cc1cc(F)c(/N=C(\c2cccc(F)c2)N(C)C)cc1[S+]([O-])CC(F)(F)F (centres unmarked) [Ib-66] | 90 | 
48 | Cc1cc(Cl)c(/N=C(\N)C(F)F)cc1SCC(F)(F)F [Ia-48] | 100 | 
49 | N/C(=N\c1cccc(SCC(F)(F)F)c1)c1ccc(Cl)nc1 [Ia-107] | 90 | 
50 | Cc1cc(C)c(SCC(F)(F)F)cc1/N=C(\N)C(F)(F)Cl [Ia-122] | 100 | 
51 | Cc1cc(F)c(/N=C2\SCC(=O)N2CC(F)F)cc1[S+]([O-])CC(F)(F)F (centres unmarked) [Ib-116] | 90 | 
52 | CN/C(=N\c1cc([S+]([O-])CC(F)(F)F)c(C)cc1F)c1cccnc1 (centres unmarked) [Ib-93] |  | efficacy (spider mites killed) [2]: 100%
53 | CN/C(=N\c1cc([S+]([O-])CC(F)(F)F)c(C)cc1F)c1ccncc1 (centres unmarked) [Ib-97] | 100 | 
54 | Cc1cc(F)c(/N=C(\c2ccccc2C(F)(F)F)N(C)C)cc1SCC(F)(F)F [Ia-245] | 90 | 

Row | SMILES | pest or weed control at 500 g/ha [1] [%] | also measured
55 | CN/C(=N\c1cc(SCC(F)(F)F)c(C)cc1C)c1cccnc1 [Ia-91] | 90 | 
56 | Cc1cc(F)c(/N=C(\N)c2cccs2)cc1SCC(F)(F)F [Ia-181] |  | pest or weed control at 100 g/ha (Tetranychus urticae, foliar, 144 h, application rate 100 g/ha, after 6 days, read-out: efficacy (spider mites killed)): 90%
57 | CN/C(=N\c1cc([S+]([O-])CC(F)(F)F)c(C)cc1F)c1cccnc1 (centres unmarked) [Ib-28, N′-{2-Fluoro-4-methyl-5-[(2,2,2-trifluoroethyl)sulfinyl]phenyl}-N-methylpyridine-3-carboximidamide] | 100 | 
58 | CCN(CC)/C(=N/c1cc(SCC(F)(F)F)c(C)cc1F)C(F)(F)F [Ia-51] | 100 | 
59 | CN/C(=N\c1cc(SCC(F)(F)F)c(Cl)cc1C)C(F)(F)F [Ia-87] | 100 | 
60 | Cc1cc(Cl)c(/N=C(\N)C(F)(F)C(F)(F)Cl)cc1[S+]([O-])CC(F)(F)F (centres unmarked) [Ib-31] | 100 | 
61 | Cc1cc(C)c(SCC(F)(F)F)cc1/N=C(\N)c1cnccn1 [Ia-190] | 90 | 
62 | C#CCN/C(=N\c1cc(SCC(F)(F)F)c(C)cc1F)C1CC1 [Ia-249] | 100 | 
63 | COc1ccc(/C(N)=N\c2cc(SCC(F)(F)F)c(C)cc2F)cc1 [Ia-263] | 90 | 
64 | Cc1cc(F)c(N=C(N)c2ccccc2F)cc1SCC(F)(F)F [Ia-133] | 100 | 
65 | CN/C(=N\c1cc([S+]([O-])CC(F)(F)F)c(C)cc1F)c1cnc(Cl)c(Cl)c1 (centres unmarked) [Ib-104] | 90 | 
66 | CN(C)/C(=N\c1cc(SCC(F)(F)F)c(Cl)cc1Cl)c1ccccc1 [Ia-205] | 100 | 
67 | Cc1cc(C)c([S+]([O-])CC(F)(F)F)cc1/N=C(/c1ccccc1Cl)N(C)C (centres unmarked) [Ib-147] | 90 | 
68 | Cc1cc(F)c(/N=C(/N2CCCC2)C(F)(F)F)cc1SCC(F)(F)F [Ia-180] | 90 | 
69 | O=C1CS/C(=N\c2cc([S+]([O-])CC(F)(F)F)c(Cl)cc2F)N1CC(F)(F)F (centres unmarked) [Ib-120] | 100 | 
70 | CN/C(=N\c1cc([S+]([O-])CC(F)(F)F)c(C)cc1F)c1ccc(Cl)cc1 (centres unmarked) [Ib-37] | 100 | 
71 | Cc1cc(Cl)c(SCC(F)(F)F)cc1/N=C(\N)c1cnccn1 [Ia-234] | 100 | 
72 | CN/C(=N\c1cc(SCC(F)(F)F)c(Cl)cc1Cl)c1ccc(Cl)nc1 [Ia-152] | 100 | 
73 | CN/C(=N\c1cc([S+]([O-])CC(F)(F)F)c(Cl)cc1Cl)c1ccccn1 (centres unmarked) [Ib-109] | 100 | 
74 | CN/C(=N\c1cc(SCC(F)(F)F)c(Cl)cc1Cl)c1ccccn1 [Ia-248] | 90 | 
75 | Cc1cc(F)c(/N=c2\sc(C)c(C)n2CC(F)(F)F)cc1SCC(F)(F)F [Ia-138] | 100 | 
76 | Cc1cc(Cl)c(SCC(F)(F)F)cc1/N=C(\N)C1CC1 [Ia-102] | 90 | 
77 | O=C1CS/C(=N\c2cc([S+]([O-])CC(F)(F)F)c(Cl)cc2Cl)N1C1CC1 (centres unmarked) [Ib-122] | 90 | 
78 | Cc1cc(F)c(/N=C(\c2cccn2C)N(C)C)cc1[S+]([O-])CC(F)(F)F (centres unmarked) [Ib-82] | 100 | 
79 | CN/C(=N\c1cc([S+]([O-])CC(F)(F)F)c(Cl)cc1Cl)c1ccc(Cl)cc1 (centres unmarked) [Ib-149] | 90 | 
80 | N/C(=N\c1cc(SCC(F)(F)F)c(Cl)cc1Cl)C(F)F [Ia-125] | 100 | 
